These results are taken from PMC8040626, “A unique Malpighian tubule architecture in Tribolium castaneum informs the evolutionary origins of systemic osmoregulation in beetles” (Proceedings of the National Academy of Sciences of the …, 2021).

Entries after “also recorded” stand apart in the source; their conditions may differ.

For experiment [1], the system named is small-nucleated SC-type of MTs. Description: Ex vivo ligand-receptor binding assay, polyphagan beetles. Conditions: all polyphagan beetles. An excerpt:
(§1) Collectively, our work points to a model in which beetle MT function operates via a two-cell–type model that is different from that of all other higher insects ([11]). To determine whether this epithelial organization is universal among beetles or, alternatively, a derived trait specific to the drought-resistant tenebrionid species, we adapted the ligand-receptor binding assay (as used in Fig. 2C) to systematically map MT tissue architecture across the beetle phylogeny. In our sampling strategy, we prioritized species representative of the larger beetle families while trying to select species inhabiting different types of ecological niches (dry, moist, or aquatic). […]
(§2) Ligand-Receptor Binding Assay. […] Next, the tissues were set-up in a matched-pair protocol, in which one batch was incubated in the appropriate insect saline added the labelled neuropeptide analogue ([…]) and DAPI (1 µg ml-1), while the other was incubated in just DAPI; the latter batch was used to adjust baseline filter and exposure settings to minimize auto-fluorescence during image acquisition.
(§3) Images were subsequently recorded on a Zeiss LSM 800 confocal microscope using baseline filter and exposure settings. […]
(§4) Electrophysiological assays. […] In brief, the ion-selective microelectrode voltage was measured at a position close to the tissue (3–5 μm) and subsequently at a more distant position (app. 50 μm) from the tubule. […]

Experiment [2] concerns Urn8R on the SC basal membrane. Nature of the experiment: Ex vivo ligand-receptor binding assay, T. castaneum tubules. Details: species or system Tribolium castaneum. The following applies: T. castaneum MTs, labelled peptide 10^-7 M, confocal microscopy.
Excerpt: To dissect the molecular mechanism underpinning Urn8-mediated control of tubule function, we immunolocalized Urn8R to the tubule epithelium of T. castaneum. […] The SC identity of this Urn8R-expressing cell type was verified by colocalization of the Tiptop transcription factor, which is known to control SC differentiation in other insects ([21]) (SI Appendix, Fig. S2A). The fact that the Urn8 pathway is confined exclusively to SCs in T. castaneum is in contrast to that of all other insects studied to date in which this hormonal circuit is diagnostic of PC activity, the majority cell type ([22]–[24]). […] Specificity of the antibody was verified by the lack of staining in MTs from Urn8R-silenced animals, and by the fact that the molecular weight of the protein corresponds to the predicted size of the receptor (Fig. 2 A and B). […]
as §2, §3

In experiment [3] the test system is tubule basolateral membranes. Nature of the experiment: Ex vivo ligand-receptor binding assay, all beetle species sampled. Details: species or system all species sampled (beetles).
Excerpt: as §1, §2, §3, §4

The next experiment deals with larger PC-type of MTs. Description: Ex vivo ligand-receptor binding assay, adephagan species.
Excerpt: as §1, §2, §3, §4

In experiment [4] the test system is basolateral membranes of SCs in MTs. Description: Ex vivo ligand-receptor binding assay, T. molitor tubules. Details: species or system Tenebrio molitor. Conditions: labelled peptide 10^-7 M, confocal microscopy.
Excerpt: Fig. 2. The Urn8 receptor localizes to a secondary cell type in MTs and is activated by its endogenous ligands DH37 and DH47. (A) Urn8R is expressed in a subpopulation of cells throughout the “free” part of the T. castaneum MT (small arrows); there are 53 ± 2 (n = 8) cells per tubule. […] (Scale bars, Left, 150 μm; Middle and Right, 30 μm.) (B) Western blot analysis of protein extracts from T. castaneum tubules showing that the anti-Urn8R antiserum recognizes a protein of a size of approximately 50 to 55 kDa, consistent with the predicted size of the receptor (51.6 kDa for the dominant -RA isoform, arrow). (C) Application of fluorophore-coupled receptor agonists DH37-F and DH47-F (10^−7 M) to T. castaneum and T. molitor MTs. […] Values are expressed as mean ± SEM. […]
as §2, §3

Regarding “TMR-C5-maleimide-SPTISITAPIDVLRKTWAKENMRKQMQINREYLKNLQamide [DH37-F, fluorophore-coupled DH37 analog, TMR-C5-maleimide labelled]”, the “Binding of fluorophore-coupled ligand, cell type” value in experiment [1] is “localized entirely to a small-nucleated SC-type”; in the experiment on larger PC-type of MTs, “confined to a larger PC-type”. Further, the “Binding of fluorophore-coupled ligand” value in experiment [2] is “bind to basolateral membranes of SCs; also recorded: Specific and displaceable binding to the SCs”; in experiment [3], “specific and displaceable”; in experiment [4], “bind to basolateral membranes of SCs; also recorded: Specific and displaceable binding to the SCs”.

For “TMR-C5-maleimide-AGALGESGASLSIVNSLDVLRNRLLLEIARKKAKEGANRNRQILLSLamide [DH47-F, fluorophore-coupled DH47 analog, TMR-C5-maleimide labelled]”, the figures for the “Binding of fluorophore-coupled ligand, cell type” value (in experiment [1]; in the experiment with larger PC-type of MTs) were “localized entirely to a small-nucleated SC-type” and “confined to a larger PC-type”, respectively. Also, the “Binding of fluorophore-coupled ligand” value is “bind to basolateral membranes of SCs; also recorded: Specific and displaceable binding to the SCs” in experiment [2]; “specific and displaceable” in experiment [3]; “bind to basolateral membranes of SCs; also recorded: Specific and displaceable binding to the SCs” in experiment [4].
